Measured values taken from article PMC5218480 (PLoS ONE, 2017).

System: MV-4-11 cells
Assay: Gene expression microarray analysis (Affymetrix PrimeView) and GSEA
Format: cell-based, human
Design: RFU PODN (11730768_x_at) / Fold change /veh PODN (11730768_x_at) / RFU LINC00158 (11744669_a_at) / Fold change /veh LINC00158 (11744669_a_at) / RFU DUSP10 (11751237_a_at) / Fold change /veh DUSP10 (11751237_a_at) / RFU ID3 (11757404_x_at) / Fold change /veh ID3 (11757404_x_at) / RFU PLEKHG5 (11737974_s_at) / Fold change /veh PLEKHG5 (11737974_s_at) / RFU LRRC4B (11730491_at) / Fold change /veh LRRC4B (11730491_at) / RFU GIMAP4 (11747438_a_at) / Fold change /veh GIMAP4 (11747438_a_at) / RFU KRT8 (11758183_x_at) / Fold change /veh KRT8 (11758183_x_at) / RFU CNN1 (11734310_a_at) / Fold change /veh CNN1 (11734310_a_at) / RFU VPS37D (11726825_at) / Fold change /veh VPS37D (11726825_at) / RFU C10orf10 (11716522_x_at) / Fold change /veh C10orf10 (11716522_x_at) / RFU KIR2DL2 /// KIR2DL4 /// KIR2DL5A /// KIR2DL5B /// KIR2DS1 /// KIR2DS2 /// KIR2DS3 /// KIR2DS4 /// KIR3DL3 /// KIR3DL3 /// KIR3DS1 (11738374_at) / Fold change /veh KIR2DL2 /// KIR2DL4 /// KIR2DL5A /// KIR2DL5B /// KIR2DS1 /// KIR2DS2 /// KIR2DS3 /// KIR2DS4 /// KIR3DL3 /// KIR3DL3 /// KIR3DS1 (11738374_at) / RFU C1QL1 (11718748_at) / Fold change /veh C1QL1 (11718748_at) / RFU TMPRSS4 (11747572_a_at) / Fold change /veh TMPRSS4 (11747572_a_at) / RFU HAMP (11756126_x_at) / Fold change /veh HAMP (11756126_x_at) / RFU RNFT2 (11725882_a_at) / Fold change /veh RNFT2 (11725882_a_at) / RFU NR4A2 (11747474_a_at) / Fold change /veh NR4A2 (11747474_a_at) / RFU ABCC12 (11746883_a_at) / Fold change /veh ABCC12 (11746883_a_at) / RFU TMEM136 (11760407_x_at) / Fold change /veh TMEM136 (11760407_x_at) / RFU CLDN22 /// WWC2 (11732394_at) / Fold change /veh CLDN22 /// WWC2 (11732394_at) / RFU HLA-DPB1 (11760878_x_at) / Fold change /veh HLA-DPB1 (11760878_x_at) / RFU SPINT1 (11716480_a_at) / Fold change /veh SPINT1 (11716480_a_at) / RFU GAP43 (11754022_s_at) / Fold change /veh GAP43 (11754022_s_at) / RFU A4GNT (11735810_at) / Fold change /veh A4GNT (11735810_at) / RFU PRB3 (11715151_x_at) / Fold change /veh PRB3 (11715151_x_at) / RFU TUBB4B (11761932_at) / Fold change /veh TUBB4B (11761932_at) / RFU CAPN14 (11732068_a_at) / Fold change /veh CAPN14 (11732068_a_at) / RFU TMCC2 (11721928_a_at) / Fold change /veh TMCC2 (11721928_a_at) / RFU IRGQ (11745062_a_at) / Fold change /veh IRGQ (11745062_a_at) / RFU FAM174B (11720279_a_at) / Fold change /veh FAM174B (11720279_a_at) / RFU TMPRSS4 (11748680_a_at) / Fold change /veh TMPRSS4 (11748680_a_at) / RFU FAM212B (11763350_a_at) / Fold change /veh FAM212B (11763350_a_at) / RFU PLEKHG5 (11743358_a_at) / Fold change /veh PLEKHG5 (11743358_a_at) / RFU ZSCAN30 (11745921_a_at) / Fold change /veh ZSCAN30 (11745921_a_at) / RFU CMKLR1 (11741424_a_at) / Fold change /veh CMKLR1 (11741424_a_at) / RFU LOC101060620 /// MAPK8IP1 (11723275_at) / Fold change /veh LOC101060620 /// MAPK8IP1 (11723275_at) / RFU SPTSSB (11747773_x_at) / Fold change /veh SPTSSB (11747773_x_at) / RFU PRSS12 (11739890_at) / Fold change /veh PRSS12 (11739890_at) / RFU BIN1 (11741810_x_at) / Fold change /veh BIN1 (11741810_x_at) / RFU WNT11 (11732464_a_at) / Fold change /veh WNT11 (11732464_a_at) / RFU C10orf10 (11716521_a_at) / Fold change /veh C10orf10 (11716521_a_at) / RFU C5orf56 (11738089_at) / Fold change /veh C5orf56 (11738089_at) / RFU CYB561 (11721691_x_at) / Fold change /veh CYB561 (11721691_x_at) / RFU ANKRD19P (11752326_a_at) / Fold change /veh ANKRD19P (11752326_a_at) / RFU OR2T12 /// OR2T33 /// OR2T8 (11738714_s_at) / Fold change /veh OR2T12 /// OR2T33 /// OR2T8 (11738714_s_at) / RFU VCAN (11748164_a_at) / Fold change /veh VCAN (11748164_a_at) / RFU JSRP1 (11732532_at) / Fold change /veh JSRP1 (11732532_at) / RFU KRTAP10-11 (11738290_x_at) / Fold change /veh KRTAP10-11 (11738290_x_at) / RFU MYO3A (11730013_a_at) / Fold change /veh MYO3A (11730013_a_at) / RFU EBF3 (11725865_a_at) / Fold change /veh EBF3 (11725865_a_at) / RFU CAMK2N1 (11719241_x_at) / Fold change /veh CAMK2N1 (11719241_x_at) / RFU C5orf56 (11738088_a_at) / Fold change /veh C5orf56 (11738088_a_at) / RFU OLFML3 (11715873_a_at) / Fold change /veh OLFML3 (11715873_a_at) / RFU LOC100653217 /// NTM (11731650_a_at) / Fold change /veh LOC100653217 /// NTM (11731650_a_at) / RFU MAPK11 (11762145_a_at) / Fold change /veh MAPK11 (11762145_a_at) / RFU FIZ1 (11724087_x_at) / Fold change /veh FIZ1 (11724087_x_at) / RFU OASL (11726364_x_at) / Fold change /veh OASL (11726364_x_at) / RFU SOX15 (11748057_x_at) / Fold change /veh SOX15 (11748057_x_at) / RFU CD79A (11719716_a_at) / Fold change /veh CD79A (11719716_a_at) / RFU HIST1H1D (11736915_at) / Fold change /veh HIST1H1D (11736915_at) / RFU CASKIN2 (11723855_a_at) / Fold change /veh CASKIN2 (11723855_a_at) / RFU LOC730098 (11760151_x_at) / Fold change /veh LOC730098 (11760151_x_at) / RFU OR4N2 (11742367_at) / Fold change /veh OR4N2 (11742367_at) / RFU PRRT2 (11749266_a_at) / Fold change /veh PRRT2 (11749266_a_at) / RFU SNX32 (11753110_a_at) / Fold change /veh SNX32 (11753110_a_at) / RFU CDHR5 (11726645_a_at) / Fold change /veh CDHR5 (11726645_a_at) / RFU RCAN1 (11760418_a_at) / Fold change /veh RCAN1 (11760418_a_at) / RFU FAM167A (11723789_a_at) / Fold change /veh FAM167A (11723789_a_at) / RFU FAM26E (11764081_at) / Fold change /veh FAM26E (11764081_at) / RFU ISYNA1 (11749810_s_at) / Fold change /veh ISYNA1 (11749810_s_at) / RFU ACY1 (11761880_at) / Fold change /veh ACY1 (11761880_at) / RFU 11764098_at / Fold change /veh 11764098_at / RFU SAMD14 (11745864_x_at) / Fold change /veh SAMD14 (11745864_x_at) / RFU NPB (11741838_a_at) / Fold change /veh NPB (11741838_a_at) / RFU TMPRSS6 (11731388_a_at) / Fold change /veh TMPRSS6 (11731388_a_at) / RFU KRTAP10-2 (11738614_at) / Fold change /veh KRTAP10-2 (11738614_at) / RFU ARHGAP8 /// PRR5-ARHGAP8 (11727945_x_at) / Fold change /veh ARHGAP8 /// PRR5-ARHGAP8 (11727945_x_at) / RFU KRTAP5-7 /// NADSYN1 (11734609_at) / Fold change /veh KRTAP5-7 /// NADSYN1 (11734609_at) / RFU RASL12 (11751679_a_at) / Fold change /veh RASL12 (11751679_a_at) / RFU CDKN2B (11736163_a_at) / Fold change /veh CDKN2B (11736163_a_at) / RFU PRF1 (11729649_at) / Fold change /veh PRF1 (11729649_at) / RFU, ZNF638 /// ZNF638-IT1 / Fold change vs veh, ZNF638 /// ZNF638-IT1 / RFU, PANK3 / Fold change vs veh, PANK3 / RFU, SH3YL1 / Fold change vs veh, SH3YL1 / RFU, ZEB2 / Fold change vs veh, ZEB2 / RFU, NRIP1 / Fold change vs veh, NRIP1 / RFU, PTTG1IP / Fold change vs veh, PTTG1IP / RFU, CAPN2 / Fold change vs veh, CAPN2 / RFU, MED14 / Fold change vs veh, MED14 / RFU, SNORA58 / Fold change vs veh, SNORA58 / RFU, C1orf63 / Fold change vs veh, C1orf63 / RFU, LRRFIP1 / Fold change vs veh, LRRFIP1 / RFU, NDUFAF7 / Fold change vs veh, NDUFAF7 / RFU, SLC12A2 / Fold change vs veh, SLC12A2 / RFU, IBTK / Fold change vs veh, IBTK / RFU, ESF1 / Fold change vs veh, ESF1 / Fold change vs veh, TMEM50B / RFU, TAOK1 / Fold change vs veh, TAOK1 / RFU, ACBD3 / Fold change vs veh, ACBD3 / RFU, TMA16 / Fold change vs veh, TMA16 / RFU, RWDD3 / Fold change vs veh, RWDD3 / RFU, BCAT1 / Fold change vs veh, BCAT1 / RFU, EDEM3 / Fold change vs veh, EDEM3 / RFU, TMEM33 / Fold change vs veh, TMEM33 / RFU, WDR75 / Fold change vs veh, WDR75 / RFU, AHCTF1 / Fold change vs veh, AHCTF1 / RFU, TFRC / Fold change vs veh, TFRC / RFU, ZDHHC17 / Fold change vs veh, ZDHHC17 / RFU, NOM1 / Fold change vs veh, NOM1 / RFU, ARL8B / Fold change vs veh, ARL8B / RFU, ZBTB11 / Fold change vs veh, ZBTB11 / RFU, TAMM41 / Fold change vs veh, TAMM41 / RFU, KIAA1704 /// LOC100996395 / Fold change vs veh, KIAA1704 /// LOC100996395 / RFU, ING1 / Fold change vs veh, ING1 / RFU, TRMT61B / Fold change vs veh, TRMT61B / RFU, FUBP3 / Fold change vs veh, FUBP3 / RFU, TP53 / Fold change vs veh, TP53 / RFU, TNKS2 / Fold change vs veh, TNKS2 / RFU, ZFP14 / Fold change vs veh, ZFP14 / RFU, ACTR2 / Fold change vs veh, ACTR2 / RFU, PPP3R1 / Fold change vs veh, PPP3R1 / RFU, PIK3R1 / Fold change vs veh, PIK3R1 / RFU, HNRNPA1 / Fold change vs veh, HNRNPA1 / RFU, RNF170 / Fold change vs veh, RNF170 / RFU, ZNF28 / Fold change vs veh, ZNF28 / RFU, RNGTT / Fold change vs veh, RNGTT / RFU, OGT / Fold change vs veh, OGT / RFU, BRD1 / Fold change vs veh, BRD1 / RFU, MARS / Fold change vs veh, MARS / RFU, ZNF655 / Fold change vs veh, ZNF655 / RFU, FAHD1 / Fold change vs veh, FAHD1 / RFU, BDP1 / Fold change vs veh, BDP1 / RFU, LRRCC1 / Fold change vs veh, LRRCC1 / RFU, ARID1A / Fold change vs veh, ARID1A / RFU, ZNF146 / Fold change vs veh, ZNF146 / RFU, ZNF330 / Fold change vs veh, ZNF330 / RFU, GPN3 / Fold change vs veh, GPN3 / RFU, C9orf123 / Fold change vs veh, C9orf123 / RFU, N4BP2L2 / Fold change vs veh, N4BP2L2 / RFU, ARFIP1 / Fold change vs veh, ARFIP1 / RFU, FAM179B / Fold change vs veh, FAM179B / RFU, BCL10 / Fold change vs veh, BCL10 / RFU, UHRF1BP1L / Fold change vs veh, UHRF1BP1L / RFU, BET1 / Fold change vs veh, BET1 / RFU, CNOT2 / Fold change vs veh, CNOT2 / RFU, ZNF268 / Fold change vs veh, ZNF268 / Fold change vs veh, ZNF507 / RFU, DGCR2 / Fold change vs veh, DGCR2 / RFU, WDSUB1 / Fold change vs veh, WDSUB1 / Fold change vs veh, HSP90B1 /// MIR3652 / RFU, ADSS / Fold change vs veh, ADSS / RFU, GK / Fold change vs veh, GK / RFU, ZNF148 / Fold change vs veh, ZNF148 / RFU, TAF9 / Fold change vs veh, TAF9 / RFU, SLC1A5 / Fold change vs veh, SLC1A5 / RFU, SLMO2 / Fold change vs veh, SLMO2 / RFU, ABCC4 / Fold change vs veh, ABCC4 / RFU, LOC101060439 /// RAP1B / Fold change vs veh, LOC101060439 /// RAP1B / RFU, RFX7 / Fold change vs veh, RFX7 / RFU, GTPBP10 / Fold change vs veh, GTPBP10 / RFU, CNEP1R1 / Fold change vs veh, CNEP1R1 / RFU, BIVM-ERCC5 /// ERCC5 / Fold change vs veh, BIVM-ERCC5 /// ERCC5 / RFU, ILF3 / Fold change vs veh, ILF3 / RFU 11762660_at / Fold change /veh 11762660_at / RFU VCAN (11757783_s_at) / Fold change /veh VCAN (11757783_s_at) / RFU DDX43 (11728927_at) / Fold change /veh DDX43 (11728927_at) / RFU KRT8 (11758188_x_at) / Fold change /veh KRT8 (11758188_x_at) / RFU NKD1 (11759106_at) / Fold change /veh NKD1 (11759106_at) / RFU SRD5A1 (11742802_a_at) / Fold change /veh SRD5A1 (11742802_a_at) / RFU TPSAB1 /// TPSB2 (11721975_s_at) / Fold change /veh TPSAB1 /// TPSB2 (11721975_s_at) / RFU GSTM3 (11746129_a_at) / Fold change /veh GSTM3 (11746129_a_at) / RFU IL23R (11737362_x_at) / Fold change /veh IL23R (11737362_x_at) / RFU TMEM51 (11727254_a_at) / Fold change /veh TMEM51 (11727254_a_at) / RFU PIWIL2 (11732686_x_at) / Fold change /veh PIWIL2 (11732686_x_at) / RFU ORM1 (11744905_x_at) / Fold change /veh ORM1 (11744905_x_at) / RFU CCDC152 (11743942_at) / Fold change /veh CCDC152 (11743942_at) / RFU ECM1 (11717891_a_at) / Fold change /veh ECM1 (11717891_a_at) / RFU IL23R (11748794_a_at) / Fold change /veh IL23R (11748794_a_at) / RFU TNFAIP8L3 (11732012_x_at) / Fold change /veh TNFAIP8L3 (11732012_x_at) / RFU MBOAT4 (11741988_at) / Fold change /veh MBOAT4 (11741988_at) / RFU 11764193_at / Fold change /veh 11764193_at / RFU TMEM53 (11763286_at) / Fold change /veh TMEM53 (11763286_at) / RFU MAGEB2 (11727129_at) / Fold change /veh MAGEB2 (11727129_at) / RFU TMEM200A (11744735_a_at) / Fold change /veh TMEM200A (11744735_a_at) / RFU CCDC152 (11751479_a_at) / Fold change /veh CCDC152 (11751479_a_at) / RFU FAM211A (11726209_a_at) / Fold change /veh FAM211A (11726209_a_at) / RFU RGS16 (11746705_a_at) / Fold change /veh RGS16 (11746705_a_at) / RFU VCAN (11755009_s_at) / Fold change /veh VCAN (11755009_s_at) / RFU RHOB (11743442_s_at) / Fold change /veh RHOB (11743442_s_at) / RFU RGS16 (11720943_a_at) / Fold change /veh RGS16 (11720943_a_at) / RFU RGS16 (11720944_at) / Fold change /veh RGS16 (11720944_at) / RFU, VPS4B / Fold change vs veh, VPS4B / RFU, CREB1 / Fold change vs veh, CREB1 / RFU, DNAJC13 / Fold change vs veh, DNAJC13 / RFU, GNAQ / Fold change vs veh, GNAQ / RFU, CDK5R1 / Fold change vs veh, CDK5R1 / RFU, ZRANB3 / Fold change vs veh, ZRANB3 / RFU, CUL4A / Fold change vs veh, CUL4A / RFU, CCNY / Fold change vs veh, CCNY / RFU, UFL1 / Fold change vs veh, UFL1 / RFU, COG3 / Fold change vs veh, COG3 / RFU, DIAPH2 / Fold change vs veh, DIAPH2 / RFU, SKA2 / Fold change vs veh, SKA2 / RFU, AFF3 / Fold change vs veh, AFF3 / RFU, LMF1 / Fold change vs veh, LMF1 / RFU, IPO11 / Fold change vs veh, IPO11 / RFU, DFFB / Fold change vs veh, DFFB / RFU, FOXP1 / Fold change vs veh, FOXP1 / RFU, CARD8 / Fold change vs veh, CARD8 / RFU, STRN3 / Fold change vs veh, STRN3 / RFU, ADK / Fold change vs veh, ADK / RFU, RASSF2 / Fold change vs veh, RASSF2 / RFU, WIPF1 / Fold change vs veh, WIPF1 / RFU, LARP1B / Fold change vs veh, LARP1B / RFU, RASA1 / Fold change vs veh, RASA1 / RFU, RB1 / Fold change vs veh, RB1 / RFU, PPFIA1 / Fold change vs veh, PPFIA1 / RFU, MAT2A / Fold change vs veh, MAT2A / RFU, CCT5 / Fold change vs veh, CCT5 / RFU, WDR92 / Fold change vs veh, WDR92 / RFU, CUX1 / Fold change vs veh, CUX1 / RFU, TTC7A / Fold change vs veh, TTC7A / RFU, TMEM135 / Fold change vs veh, TMEM135 / RFU, DEPTOR / Fold change vs veh, DEPTOR / RFU, CPM / Fold change vs veh, CPM / RFU, DNAJB6 / Fold change vs veh, DNAJB6 / RFU, CACNA2D3 / Fold change vs veh, CACNA2D3 / RFU, DTX4 / Fold change vs veh, DTX4 / RFU, TFCP2 / Fold change vs veh, TFCP2 / RFU, GMCL1 /// GMCL1P1 / Fold change vs veh, GMCL1 /// GMCL1P1 / RFU, AEBP2 / Fold change vs veh, AEBP2 / RFU, SNHG1 /// SNORD22 /// SNORD25 /// SNORD26 /// SNORD27 /// SNORD28 /// SNORD29 /// SNORD31 / Fold change vs veh, SNHG1 /// SNORD22 /// SNORD25 /// SNORD26 /// SNORD27 /// SNORD28 /// SNORD29 /// SNORD31 / Fold change (Aza/veh), C12orf56 (ProbeSet 11735607_a_at) / Fold change (ACY-1035/veh), C12orf56 (ProbeSet 11735607_a_at) / Fold change (Aza/veh), FGFR1OP (ProbeSet 11751329_s_at) / Fold change (ACY-1035/veh), FGFR1OP (ProbeSet 11751329_s_at) / Fold change (Aza/veh), VPS36 (ProbeSet 11739960_a_at) / Fold change (ACY-1035/veh), VPS36 (ProbeSet 11739960_a_at) / RFU SYPL1 (11715823_x_at) / Fold change /veh SYPL1 (11715823_x_at) / RFU IGFBP7 (11715501_s_at) / Fold change /veh IGFBP7 (11715501_s_at) / RFU REEP3 (11722064_at) / Fold change /veh REEP3 (11722064_at) / RFU IGLL1 (11728026_x_at) / Fold change /veh IGLL1 (11728026_x_at): dose or concentration left out as unconfirmed
Details: ProbeSet 11758397_s_at; LIST B

For `Nc1ccc(-c2cccs2)cc1NC(=O)c1ccc2c(c1)cc(C1CC1)n2CCN1CCOCC1` [ACY-1035], the “Fold change vs veh, RNF170” value was 0.96.
